The target of assay [1] is IDH1 wt/IDH1 R132H heterodimer (Homo sapiens (Human), UniProt O75874, R132H). Kind of assay: In vitro assay for IDH1m R132H inhibitors, IDH1 wt/IDH1 R132H heterodimer, NADPH depletion (diaphorase/resazurin). Conditions: IDH1 wt/R132H heterodimer, NADPH/NADP, not saturated; read-out: IDH1 wt/R132H NADPH/NADP IC50 not saturated. The assay is classed as biochemical. In a few lines: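 Purified IDH1wt-his/IDH1R132H-flag heterodimer (sf9 co-expression) pre-incubated 1 hr at room temperature with compound and NADPH before α-KG addition. Remaining NADPH read by diaphorase/resazurin conversion to fluorescent resorufin, 5 min at 25° C. Compounds diluted 1:50 from DMSO; IC50 determined.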
Sequence of IDH1 wt/IDH1 R132H heterodimer (O75874 whole entry R132H): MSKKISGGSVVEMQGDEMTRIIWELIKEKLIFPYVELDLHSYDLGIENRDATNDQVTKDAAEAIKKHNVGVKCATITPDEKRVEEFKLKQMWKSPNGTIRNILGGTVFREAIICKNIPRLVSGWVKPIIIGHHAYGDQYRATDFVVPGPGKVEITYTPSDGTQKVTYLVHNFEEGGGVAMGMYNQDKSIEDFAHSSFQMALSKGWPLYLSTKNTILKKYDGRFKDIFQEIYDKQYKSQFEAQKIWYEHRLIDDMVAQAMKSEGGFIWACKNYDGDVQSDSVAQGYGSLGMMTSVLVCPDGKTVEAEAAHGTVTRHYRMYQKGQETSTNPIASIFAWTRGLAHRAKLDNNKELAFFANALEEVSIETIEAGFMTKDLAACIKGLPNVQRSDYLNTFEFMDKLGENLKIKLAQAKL
Sequence of IDH1 wt/IDH1 R132H heterodimer (O75874 whole entry, stated change not applied): as the sequence (O75874 whole entry R132H) above, with H132R counted along it
Background: The colour change of resazurin is a common sign of viable cells or microbes.

A further assay deals with IDH2 R140Q (Homo sapiens (Human), UniProt P48735, R140Q). In words: In vitro assay for IDH2m R140Q inhibitors, cofactor depletion assay. The note with it: IDH2 R140Q enzyme. The assay is classed as biochemical. In a few lines:
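Remaining cofactor measured fluorimetrically: diaphorase/resazurin Stop Mix […], halting the reaction. Before that, mutant enzyme and compound sat 1 h at RT, then substrate mix (4 μM NADPH, 1.6 mM α-KG) was added for 16 h at RT.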

For the next assay, the system named is HT1080 cells. In words: Cellular assay for IDH1m R132C inhibitors, 2-HG by LC-MS in HT1080 cells. The format is cell-based. The note with it: Homo sapiens, HT-1080. In a few lines: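 HT1080 cells at 5000 cells/well were treated with compound (0.2% DMSO final). After 48 h, 2-HG in the medium was measured by LC-MS. Viability was read by CellTiter-Glo luminescence at 72 h.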

Assay [2] concerns Neurosphere cells (TS603). In words: Cellular assay for IDH1m R132H inhibitors, 2-HG by LC-MS in neurosphere cells (TS603). The format is cell-based. The note with it: 2-HG in media at 48 hours. In a few lines: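 TS603 neurosphere cells in NeuroCult medium were dosed with compound (0.25% DMSO final) at 37 C, 5% CO2. After 48 hours, medium 2-HG was measured by LC-MS. At 72 hours, viability was read by CellTiter-Glo luminescence.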

Assay [3] relates to U87MG pLVX-IDH2 R140Q-neo cells. Kind of assay: U87MG pLVX-IDH2 R140Q-neo cell based assay, 2-HG by LC-MS. The note with it: Homo sapiens, U-87 MG.
The target of assay [4] is IDH1-R132H homodimer enzyme (Homo sapiens (Human), UniProt O75874, R132H). Kind of assay: In vitro assay IDH1-R132H homodimer, NADPH depletion assay with NADPH/NADP preincubation. Conditions: 5 μM NADPH and 37.5 μM NADP. The assay is classed as biochemical. As to the method: The following describes the experimental procedures that can be used to obtain data on columns 3 and 5 of Table 5.
Sequence of IDH1-R132H homodimer enzyme (O75874 whole entry R132H): as the sequence (O75874 whole entry R132H) above
A test compound is prepared as 10 mM stock in DMSO and diluted to 50× final concentration in DMSO, for a 50 μl reaction mixture. IDH enzyme activity converting alpha-ketoglutarate to 2-hydroxyglutaric acid is measured using a NADPH depletion assay. In the assay the remaining cofactor is measured at the end of the reaction with the addition of a catalytic excess of diaphorase and resazurin, to generate a fluorescent signal in proportion to the amount of NADPH remaining. […] The reaction is started with the addition of 10 μl of Substrate Mix ([…], 5 mM alpha-ketoglutarate, in Assay Buffer) and the mixture is incubated for 60 minutes at room temperature.

Where only a bound is given, the exact number is not on record here.

Sequence of IDH2 R140Q (P48735 40-452 R140Q): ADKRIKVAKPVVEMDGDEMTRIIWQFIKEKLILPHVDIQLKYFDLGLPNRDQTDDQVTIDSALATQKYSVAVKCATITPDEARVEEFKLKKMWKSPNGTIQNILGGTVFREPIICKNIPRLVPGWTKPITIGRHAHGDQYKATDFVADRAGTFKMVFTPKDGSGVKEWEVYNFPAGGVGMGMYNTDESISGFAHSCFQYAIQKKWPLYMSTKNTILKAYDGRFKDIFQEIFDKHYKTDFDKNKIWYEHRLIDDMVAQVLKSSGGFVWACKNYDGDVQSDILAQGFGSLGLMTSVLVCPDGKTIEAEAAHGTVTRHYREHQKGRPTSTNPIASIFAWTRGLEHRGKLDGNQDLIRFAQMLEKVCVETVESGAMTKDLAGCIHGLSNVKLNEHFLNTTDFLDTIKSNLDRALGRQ

As to `CC(Nc1nc(NC(C)C(F)(F)F)nc(-n2ccc(C(F)(F)F)n2)n1)C(F)(F)F` (stereo not drawn) [Compound 141], the IC50 (in assay [1]; at IDH2 R140Q; with HT1080 cells; in assay [2]; in assay [3]; in assay [4]) was less than 50 nM each time.

Consider `FC1(F)CCC(Nc2nc(NC3CC(F)(F)C3)nc(-c3cccc(C(F)(F)F)n3)n2)CC1` [Compound 143], for which the IC50 is less than 50 nM in assay [1]; less than 50 nM at IDH2 R140Q; 50 to 100 nM in the assay on HT1080 cells; less than 50 nM in assay [2]; less than 50 nM in assay [3]; less than 50 nM in assay [4].

Regarding `FC1(F)CC(Nc2nc(NC3CC(F)(F)C3)nc(-c3cncc(Cl)n3)n2)C1` [Compound 144], the IC50 (in assay [1]; against IDH2 R140Q; with HT1080 cells; in assay [2]; in assay [3]; in assay [4]) was less than 50 nM in each case.

For the molecule `N#Cc1cc(F)cc(Nc2nc(NC3CC(F)(F)C3)nc(-c3cccc(C(F)(F)F)n3)n2)c1` [Compound 154], the IC50 in assay [1] was less than 50 nM; on IDH2 R140Q, less than 50 nM; in the assay on HT1080 cells, 100 to 1000 nM; in assay [2], less than 50 nM; in assay [3], less than 50 nM; in assay [4], less than 50 nM.

Turning to `CC(F)(F)c1nc(-c2nc(NC3CCC(F)(F)C3)nc(NC3CCC(F)(F)C3)n2)cs1` (stereo not drawn) [Compound 155], the IC50 in assay [1] was less than 50 nM; against IDH2 R140Q it was less than 50 nM; in the assay with HT1080 cells it was 50 to 100 nM; in assay [2], less than 50 nM; in assay [3] it was less than 50 nM; in assay [4] it was less than 50 nM.

As to `CC(Nc1nc(NC(C)C(F)(F)F)nc(-c2cncc(Cl)n2)n1)C(F)(F)F` (stereo not drawn) [Compound 156], the IC50 (in assay [1]; on IDH2 R140Q; with HT1080 cells; in assay [2]; in assay [3]; in assay [4]) was less than 50 nM throughout.

Take `FC1(F)CCCC1Nc1nc(NC2CCCC2(F)F)nc(-c2cccc(Cl)n2)n1` (stereo not drawn) [Compound 157]: the IC50 was less than 50 nM in assay [1]; 50 to 100 nM at IDH2 R140Q; less than 50 nM in the assay with HT1080 cells; less than 50 nM in assay [2]; 50 to 100 nM in assay [3]; less than 50 nM in assay [4].

For the molecule `Fc1cc(F)cc(Nc2nc(NC3CCC(F)(F)C3)nc(-c3nc(C(F)(F)F)cs3)n2)c1` (stereo not drawn) [Compound 159], the IC50 in assay [1] is less than 50 nM; on IDH2 R140Q, less than 50 nM; with HT1080 cells it was 100 to 1000 nM; in assay [2] it was less than 50 nM; in assay [3], less than 50 nM; in assay [4], less than 50 nM.

For the molecule `CC(F)(F)c1cc(Nc2nc(NC3CCC(F)(F)C3)nc(-c3cccc(C(F)(F)F)n3)n2)ccn1` (stereo not drawn) [Compound 163], the IC50 in assay [1] was less than 50 nM; against IDH2 R140Q it was less than 50 nM; in the assay on HT1080 cells it was 100 to 1000 nM; in assay [2], less than 50 nM; in assay [3] it was less than 50 nM; in assay [4], 50 to 100 nM.

As for `Nc1ccc(F)c(-c2nc(Nc3cc(F)cc(F)c3)nc(NC3CCC(F)(F)CC3)n2)n1` [Compound 165], the IC50 in assay [1] was less than 50 nM; against IDH2 R140Q, less than 50 nM; with HT1080 cells, 100 to 1000 nM; in assay [2] it was less than 50 nM; in assay [3], less than 50 nM; in assay [4], 50 to 100 nM.

Consider `N#CC1(c2cc(Nc3nc(NC4CC(F)(F)C4)nc(-n4ccc(C(F)(F)F)n4)n3)ccn2)CC1` [Compound 169], for which the IC50 (in assay [1]; against IDH2 R140Q; with HT1080 cells; in assay [2]; in assay [3]; in assay [4]) was less than 50 nM throughout.

On to `CC(Nc1nc(Nc2ccnc(C(F)(F)F)c2)nc(-c2cccc(C(F)(F)F)n2)n1)C(F)(F)F` (stereo not drawn) [Compound 171], for which the IC50 was less than 50 nM in assay [1]; less than 50 nM on IDH2 R140Q; 100 to 1000 nM with HT1080 cells; less than 50 nM in assay [2]; less than 50 nM in assay [3]; 50 to 100 nM in assay [4].

For `N#Cc1cc(F)cc(Nc2nc(NCC3CC3)nc(-c3cccc(C(F)(F)F)n3)n2)c1` [Compound 175], the IC50 in assay [1] was less than 50 nM; against IDH2 R140Q, less than 50 nM; in the assay with HT1080 cells, 100 to 1000 nM; in assay [2] it was less than 50 nM; in assay [3], less than 50 nM; in assay [4] it was 50 to 100 nM.

Regarding `N#Cc1cc(Nc2nc(NC3CCC(F)(F)C3)nc(-n3ccc(C(F)(F)F)n3)n2)ccn1` (stereo not drawn) [Compound 179], the IC50 in assay [1] is less than 50 nM; at IDH2 R140Q, less than 50 nM; with HT1080 cells, 100 to 1000 nM; in assay [2], less than 50 nM; in assay [3] it was less than 50 nM; in assay [4], less than 50 nM.

`CC[C@H](Nc1nc(N[C@@H](CC)C(F)(F)F)nc(-c2cccc(Cl)n2)n1)C(F)(F)F` [Compound 180]: the IC50 in assay [1] is less than 50 nM; against IDH2 R140Q, 50 to 100 nM; with HT1080 cells it was less than 50 nM; in assay [2], less than 50 nM; in assay [3] it was 100 to 1000 nM; in assay [4], less than 50 nM.

As to `FC1(F)CCC(Nc2nc(NC3CCC(F)(F)CC3)nc(-c3nc(C(F)(F)F)cs3)n2)CC1` [Compound 183], the IC50 in assay [1] was less than 50 nM; against IDH2 R140Q, less than 50 nM; in the assay on HT1080 cells, 50 to 100 nM; in assay [2], less than 50 nM; in assay [3] it was less than 50 nM; in assay [4], 100 to 1000 nM.

Regarding `FC(F)c1cncc(-c2nc(NC3CCC(F)(F)CC3)nc(NC3CCC(F)(F)CC3)n2)n1` [Compound 186], the IC50 was less than 50 nM in assay [1]; less than 50 nM on IDH2 R140Q; 100 to 1000 nM in the assay on HT1080 cells; less than 50 nM in assay [2]; less than 50 nM in assay [3]; 100 to 1000 nM in assay [4].

`FC1(F)CCC(Nc2nc(NC3CCC(F)(F)C3)nc(-c3ccnc(C(F)(F)F)n3)n2)C1` (stereo not drawn) [Compound 194]: the IC50 in assay [1] is less than 50 nM; on IDH2 R140Q it was 50 to 100 nM; with HT1080 cells, 50 to 100 nM; in assay [2], less than 50 nM; in assay [3], 50 to 100 nM; in assay [4], 100 to 1000 nM.

`Fc1cc(F)cc(Nc2nc(NC3CC(F)(F)C3)nc(-c3nc(F)ccc3F)n2)c1` [Compound 195]: the IC50 in assay [1] was less than 50 nM; on IDH2 R140Q, less than 50 nM; with HT1080 cells, 100 to 1000 nM; in assay [2], less than 50 nM; in assay [3], less than 50 nM; in assay [4] it was 50 to 100 nM.

Regarding `CC[C@H](Nc1nc(N[C@H](CC)C(F)(F)F)nc(-c2cccc(Cl)n2)n1)C(F)(F)F` [Compound 196], the IC50 in assay [1] is less than 50 nM; at IDH2 R140Q, 50 to 100 nM; with HT1080 cells, 50 to 100 nM; in assay [2], less than 50 nM; in assay [3], 100 to 1000 nM; in assay [4] it was less than 50 nM.

With `FC1(F)CC(Nc2nc(Nc3ccnc(C(F)(F)F)c3)nc(-n3ccc(C(F)(F)F)n3)n2)C1` [Compound 197], the IC50 in assay [1] was less than 50 nM; on IDH2 R140Q, less than 50 nM; in the assay on HT1080 cells, 100 to 1000 nM; in assay [2], less than 50 nM; in assay [3] it was less than 50 nM; in assay [4], 100 to 1000 nM.

For `FC(F)(F)c1cc(Nc2nc(NCC3CC3)nc(-c3cccc(Cl)n3)n2)ccn1` [Compound 200], the IC50 in assay [1] is less than 50 nM; against IDH2 R140Q it was less than 50 nM; with HT1080 cells it was greater than 1000 nM; in assay [2], less than 50 nM; in assay [3], less than 50 nM; in assay [4], 50 to 100 nM.

As to `CC(Nc1nc(Nc2ccnc(C3(C#N)CC3)c2)nc(-n2ccc(C(F)(F)F)n2)n1)C(F)(F)F` (stereo not drawn) [Compound 201], the IC50 is less than 50 nM in assay [1]; less than 50 nM at IDH2 R140Q; 50 to 100 nM in the assay on HT1080 cells; less than 50 nM in assay [2]; less than 50 nM in assay [3]; 50 to 100 nM in assay [4].

Regarding `FC1(F)CCC(Nc2nc(Nc3ccnc(-c4ccccc4)c3)nc(-c3cccc(C(F)(F)F)n3)n2)C1` (stereo not drawn) [Compound 202], the IC50 in assay [1] was less than 50 nM; at IDH2 R140Q, less than 50 nM; with HT1080 cells, 100 to 1000 nM; in assay [2], less than 50 nM; in assay [3], less than 50 nM; in assay [4] it was 100 to 1000 nM.

Values taken from US10028961B2, “Therapeutically active compounds and their methods of use” (AGIOS PHARMACEUTICALS, INC., priority 2013, dated 2018).
